The target in one test is T1, P70S6K (T412E mutant) (Homo sapiens, UniProt P23443, T412E).
T1 construct: purchased Millipore
Briefly: P70S6K enzyme assay. Format: biochemical. The settings on record: 24 μM ATP, 90 min at 25° C., mobility shift (Caliper). As to the method: P70S6K inhibitor compounds were diluted and plated in 96 well plates. A reaction mixture including the following components was then added to the compound plate to initiate the enzyme reaction; P70S6K (3 nM, T412E mutant, Millipore) was mixed with 24 μM ATP in an assay buffer containing 100 mM Hepes (pH 7.5), 5 mM MgCl2, 1 mM DTT, 0.015% Brij and 1 μM of the substrate peptide FITC-AHA-AKRRRLSSLRA-OH (derived from the S6 ribosomal protein sequence, FITC=fluorescein isothiocyanate, AHA=6-aminohexanoic acid). The reaction was incubated for 90 min at 25° C., before the addition of 10 mM EDTA to stop the reaction. The proportion of substrate and product (phosphorylated) peptide was analysed on a Caliper Life Sciences Lab Chip 3000, using a pressure of −1.4 psi, and upstream and downstream voltages of −3000 and −700 respectively. Product peaks were resolved before substrate peaks on the resulting chromatograms.

For a further test, the target named is T2, His-AKT (Full Length) (Homo sapiens, UniProt P31749).
T2 construct: His-AKT (Full Length); His; purchased Invitrogen P2999
T2 sequence (P31749 whole entry): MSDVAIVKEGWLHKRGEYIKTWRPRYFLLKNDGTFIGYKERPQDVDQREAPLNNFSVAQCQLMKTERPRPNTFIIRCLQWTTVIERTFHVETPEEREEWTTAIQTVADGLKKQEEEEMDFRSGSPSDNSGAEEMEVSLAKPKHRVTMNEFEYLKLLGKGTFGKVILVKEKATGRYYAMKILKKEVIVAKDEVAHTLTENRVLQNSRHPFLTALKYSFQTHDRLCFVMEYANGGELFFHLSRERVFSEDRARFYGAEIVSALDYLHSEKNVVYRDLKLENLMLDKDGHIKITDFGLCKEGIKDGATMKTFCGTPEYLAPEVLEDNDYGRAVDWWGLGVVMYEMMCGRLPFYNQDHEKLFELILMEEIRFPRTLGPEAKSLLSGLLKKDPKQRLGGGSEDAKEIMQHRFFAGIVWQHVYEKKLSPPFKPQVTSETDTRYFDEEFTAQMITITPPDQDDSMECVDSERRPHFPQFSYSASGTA
Put plainly: AKT enzyme assay. Format: biochemical. The settings on record: 160 uM ATP, 90 min at 25 C, off-chip mobility shift (Caliper). The protocol: A TTP Mosquito liquid handling instrument was used to place 125 nl of the appropriate concentration of inhibitor in 100% DMSO (for a dose response curve calculation) into each well of a 384-well plate. To this reaction components were added to a final volume of 12.5 μl: • 0.1 ng/μ1 His-AKT (Full Length), (Invitrogen, Part # P2999, Lot #641228C). • 160 uM ATP (Fluka, 02055) • 1 mM DTT (Sigma, D0632) • 1 mM MgCl2 (Sigma, M1028) • 1 μM substrate peptide (sequence FITC-AHA-GRPRTSSFAEG-NH2), synthesized by Tufts Peptide Synthesis service. • 100 mM HEPES pH 7.5 (Calbiochem, 391338) • 0.015% Brij-35 (Sigma, B4184)
The reaction was incubated for 90 min at 25 C, and then stopped by the addition of 70 μl of Stop buffer (100 mM HEPES pH 7.5, 0.015% Brij-35, 10 mM EDTA (Sigma, E7889)).
The plate was read on a Caliper LC 3000 in an Off-Chip mobility shift assay format, using the following parameters for a 12-sipper chip: screening pressure—2.3 psi, upstream voltage—500, and downstream voltage—3000. These conditions cause unphosphorylated substrate and phosphorylated product peptide to resolve as separate peaks allowing direct measurement of percentage of conversion of substrate to product. The percent conversion was plotted against concentration of inhibitor to produce a sigmoidal dose response curve, from which an IC50 was calculated.

Molecules are shown by their SMILES.

T1 sequence (P23443 whole entry T412E): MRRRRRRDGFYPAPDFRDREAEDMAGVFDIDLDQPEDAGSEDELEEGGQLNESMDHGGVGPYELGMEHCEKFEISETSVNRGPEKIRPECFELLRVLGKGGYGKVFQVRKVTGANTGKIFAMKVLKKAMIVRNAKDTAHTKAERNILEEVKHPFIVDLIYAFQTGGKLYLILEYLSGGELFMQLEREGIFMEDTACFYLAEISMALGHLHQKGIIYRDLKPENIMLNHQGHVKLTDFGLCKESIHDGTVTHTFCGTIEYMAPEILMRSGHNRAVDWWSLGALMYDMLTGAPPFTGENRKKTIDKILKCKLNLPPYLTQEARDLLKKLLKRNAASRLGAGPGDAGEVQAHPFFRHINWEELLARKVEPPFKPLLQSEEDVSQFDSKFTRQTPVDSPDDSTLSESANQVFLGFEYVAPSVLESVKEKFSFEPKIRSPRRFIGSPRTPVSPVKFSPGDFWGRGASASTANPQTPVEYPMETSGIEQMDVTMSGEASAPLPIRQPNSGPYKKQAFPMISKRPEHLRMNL

In general, IC50 refers to the point on the concentration scale where inhibition reaches its midpoint. `Cc1cc(-c2cn(CCN3CCC3)c(C3CCN(c4ncnc(N)c4-c4cccnc4)CC3)n2)ccc1F` [Compound 9, 6-{4-[1-(2-Azetidin-1-yl-ethyl)-4-(4-fluoro-3-methyl-phenyl)-1H-imidazol-2-yl]-piperidin-1-yl}-5-pyridin-3-yl-pyrimidin-4-ylamine]: the IC50 on P70S6K (T412E mutant) and on His-AKT (Full Length) was 3 to 15 nM each time.

With `CC(C)c1c(N)ncnc1N1CCC(c2nc(-c3ccnc(C(F)(F)F)c3)cn2CCN2CCC2)CC1` [Compound 5, 6-{4-[1-(2-Azetidin-1-yl-ethyl)-4-(2-trifluoromethyl-pyridin-4-yl)-1H-imidazol-2-yl]-piperidin-1-yl}-5-isopropyl-pyrimidin-4-ylamine], the values for the IC50 at P70S6K (T412E mutant) and at His-AKT (Full Length) were less than 3 nM and 3 to 15 nM, respectively.

As for `Cc1cc(-c2cn(CCN3CCC3)c(C3CCN(c4ncnc(N)c4Cl)CC3)n2)ccc1F` [Compound 2, 6-{4-[1-(2-Azetidin-1-yl-ethyl)-4-(4-fluoro-3-methyl-phenyl)-1H-imidazol-2-yl]-piperidin-1-yl}-5-chloro-pyrimidin-4-ylamine], the 50% inhibitory concentration (IC50) on P70S6K (T412E mutant) and on His-AKT (Full Length) was less than 3 nM throughout.

Take `CCOc1c(N)ncnc1N1CCC(c2nc(-c3ccnc(C(F)(F)F)c3)cn2CCN(C)C)CC1` [Compound 26]: the IC50 on P70S6K (T412E mutant) and at His-AKT (Full Length) was 3 to 15 nM each time.

For `CC(C)Oc1c(N)ncnc1N1CCC(c2nc(-c3ccnc(C(C)C)c3)cn2CCN2CCC2)CC1` [Compound 12, 6-{4-[1-(2-Azetidin-1-yl-ethyl)-4-(2-isopropyl-pyridin-4-yl)-1H-imidazol-2-yl]-piperidin-1-yl}-5-isopropoxy-pyrimidin-4-ylamine], the IC50 on P70S6K (T412E mutant) and at His-AKT (Full Length) was 3 to 15 nM each time.

Regarding `CCNCCn1cc(-c2ccc(F)c(C(F)(F)F)c2)nc1C1CCN(c2ncnc(N)c2C(C)C)CC1` [Compound 31, 6-{4-[1-(2-Ethylamino-ethyl)-4-(4-fluoro-3-trifluoromethyl-phenyl)-1H-imidazol-2-yl]-piperidin-1-yl}-5-isopropyl-pyrimidin-4-ylamine], the IC50 on P70S6K (T412E mutant) and on His-AKT (Full Length) was 3 to 15 nM each time.

Values taken from patent US9434714B2, “Pyrimidine imidazole amines as modulators of kinase activity” (Merck Patent GmbH, priority 2014, dated 2016).
